Where two headings read alike, the source gives them in different places.
What was measured:
[1] = tested on: EUFA30 cells (non-cancerous human fibroblasts); experiment: Alamar Blue cytotoxicity assay, EUFA30; assay type: cell-based; details: Fibroblast; for inhibition at 300 µM: bracketed values, read-out: proliferation inhibition expressed as a percentage at highest concentration used; for IC50: read-out: IC50 based on survival of cells
Description: (§1) HeLa, U87, BICR18, EUFA30 cell lines were cultured in DMEM medium (Life Technology) supplemented with 10% fetal bovine serum (Life Technology) and 0.1% antibiotics, penicillin and streptomycin (Life Technology). Cells were grown in a humidified atmosphere of CO2/air (5/95%) at 37 °C.
(§2) Exponentially growing cells were seeded onto a 96-well plate at the density of 2 × 10^3 cells/well, cultured for 18 h, and treated with newly synthesized derivatives at concentrations 1–300 µM, or with DMSO as a control, for 24 or 48 h. Alamar Blue (Invitrogen) was added accordingly to manufacturer protocol. After 4 h, light emission at 590 nm was measured with excitation at 560 nm using a scanning multiwell spectrophotometer (DTX 880, Beckman Coulter). The experiments were carried out at least three times with three replicates for each inhibitor concentration. After background subtraction, inhibition rate, IC50 was calculated as the concentration of the component inhibiting cell growth by 50%. All the calculations were performed using Origin 9.0 software.

[2] = tested on: HeLa cells (cervix adenocarcinoma); experiment: Alamar Blue cytotoxicity assay, HeLa; assay type: cell-based; details: Homo sapiens; for inhibition at 300 µM: bracketed values, read-out: proliferation inhibition expressed as a percentage at highest concentration used; for IC50: read-out: IC50 based on survival of cells
Description: as §1, §2

[3] = tested on: BICR18 cells (laryngeal squamous cell carcinoma); experiment: Alamar Blue cytotoxicity assay, BICR18; assay type: cell-based; details: for inhibition at 300 µM: bracketed values, read-out: proliferation inhibition expressed as a percentage at highest concentration used; for IC50: read-out: IC50 based on survival of cells
Description: as §1, §2

[4] = tested on: U87 cells (human primary glioblastoma); experiment: Alamar Blue cytotoxicity assay, U87; assay type: cell-based; details: U-87 MG; for inhibition at 300 µM: bracketed values, read-out: proliferation inhibition expressed as a percentage at highest concentration used; for IC50: read-out: IC50 based on survival of cells
Description: as §1, §2

EUFA30 cells = experiment: Annexin V-FITC / propidium iodide flow cytometry, EUFA30; assay type: cell-based, human; details: 24 h
Description: as §1
(§3) The Annexin V-FITC apoptosis detection kit (BD Biosciences) was used to detect apoptosis by flow cytometry. Cells were seeded at Petri dishes, cultured for 18 h with tested agents applied for 24 h. DMSO was added as the non-treated control and camptothecin (CPT) as the positive control. Subsequently, cells were washed with PBS, resuspended in binding buffer at a concentration of 2 × 10^6 cells/mL, and anti-Annexin V FITC-conjugated antibody and propidium iodide were added to 100 µL aliquots. The mixtures were incubated for 15 min at room temperature, supplemented with binding buffer to 500 µL and processed by BD FACSCalibur (BD Biosciences). Data were analyzed in Flowing Software version 2.5.1 (Flowing Software, http://www.uskonaskel.fi/flowingsoftware).

HeLa cells = experiment: Annexin V-FITC / propidium iodide flow cytometry, HeLa; assay type: cell-based; details: 24 h; for number of necrotic cells: 200 µM, non-treated control 5.4%
Description: as §1, §3

[5] = tested on: EUFA30, HeLa, BICR18, U87 cells; experiment: Alamar Blue cytotoxicity assay, statements over all tested cell lines; assay type: cell-based; details: Homo sapiens, concentrations 1-300 µM, group range = lowest to highest value, read-out: IC50 across the tested cell lines
Description: as §1, §2

[6] = EUFA30, 200 µM, non-treated control 0.3%
[7] = EUFA30, 200 µM, non-treated control 0.4%
[8] = EUFA30, 200 µM, non-treated control 5.7%
[9] = EUFA30, positive control, 10 μM

| melting point | SMILES | inhibition at 300 µM ([1]; EUFA30, 24 h) [%] | inhibition at 300 µM ([1]; EUFA30, 48 h) [%] | inhibition at 300 µM ([2]; 24 h) [%] | inhibition at 300 µM ([2]; 48 h) [%] | inhibition at 300 µM ([3]; BICR18, 24 h) [%] | inhibition at 300 µM ([4]; U87, 24 h) [%] | inhibition at 300 µM ([3]; BICR18, 48 h) [%] | inhibition at 300 µM ([4]; U87, 48 h) [%] | other results |
| --- | --- | --- | --- | --- | --- | --- | --- | --- | --- | --- |
| 286 to 287 °C | O=C1Nc2ccccc2NC(=O)c2ccccc21 [Compound 3a, 5,12-dihydrodibenzo[b,f][1,4]diazocine-6,11-dione] | 21.2 | 9 | 20.7 | 1.5 | 7.1 | 17.6 |  |  |  |
| 230 °C (dec.) | O=C1Nc2ccc([N+](=O)[O-])cc2NC(=O)c2ccccc21 [Compound 3b, 2-nitro-5,12-dihydrodibenzo[b,f][1,4]diazocine-6,11-dione] | 31 | 18.6 | 33.2 | 4.7 | 2.2 | 10.4 |  |  |  |
| 156 to 157 °C | O=C(c1ccccc1)c1ccc2c(c1)NC(=O)c1ccccc1C(=O)N2 [Compound 3c, 2-benzoyl-5,12-dihydrodibenzo[b,f][1, 4]diazocine-6,11-dione] | 28.8 |  | 14.5 |  | 10 | 15 |  |  |  |
| 243 to 244 °C | O=C1Nc2ccccc2NC(=O)c2cc([N+](=O)[O-])ccc21 [Compound 3d, 8-nitro-5,12-dihydrodibenzo[b,f][1,4]diazocine-6,11-dione] | 9.2 | 4.2 | 23.4 | 3.9 | 25.1 | 27.5 | 2.5 |  |  |
| 206 to 207 °C | CN1C(=O)c2ccccc2C(=O)Nc2ccccc21 [Compound 3e, 5-methyl-5,12-dihydrodibenzo[b,f][1,4]diazocine-6,11-dione] | 31.6 | 17.5 | 19.8 | 5.7 | 22.7 | 34.1 |  |  |  |
| 241 to 242 °C | CN1C(=O)c2cscc2C(=O)Nc2ccccc21 [Compound 3i, 5-methyl-5,10-dihydrobenzo[b]thieno[3,4-f][1,4]diazocine-4,11-dione] | 29.4 | 1.5 | 14.8 | 1.6 | 24 | 36.6 |  | 2.8 |  |
| 242 to 243 °C | CCOC(=O)c1cc2c(cc1C(=O)OCC)C(=O)Nc1ccccc1NC2=O [Compound 3k, diethyl 6,11-dioxo-5,6,11,12-tetrahydrodibenzo[b,f][1,4]diazocine-8,9-dicarboxylate] | 36.7 |  | 28.2 |  | 16.8 | 37.2 | 5.6 | 3.1 |  |
| 265 to 266 °C | CN1C(=O)c2ccccc2C(=O)N(C)c2ccccc21 [Compound 3l, 5,12-dimethyl-5,12-dihydrodibenzo[b,f][1,4]diazocine-6,11-dione] | 38.1 | 19.5 | 29.5 | 2.8 | 22.1 | 39 |  |  |  |
| 244 to 245 °C | O=C1CCC(=O)Nc2ccccc2N1 [Compound 6, 1,3,4,6-tetrahydrobenzo[b][1,4]diazocine-2,5-dione] | 29.4 | 14 | 21.5 | 4.3 | 11.3 | 19.6 |  |  |  |

The remaining lines, values behind:

| SMILES | melting point | inhibition at 300 µM ([1]; EUFA30, 24 h) [%] | inhibition at 300 µM ([1]; EUFA30, 48 h) [%] | inhibition at 300 µM ([2]; 24 h) [%] | inhibition at 300 µM ([2]; 48 h) [%] | inhibition at 300 µM ([3]; BICR18, 24 h) [%] | inhibition at 300 µM ([4]; U87, 24 h) [%] | inhibition at 300 µM ([3]; BICR18, 48 h) [%] | inhibition at 300 µM ([4]; U87, 48 h) [%] | other results |
| --- | --- | --- | --- | --- | --- | --- | --- | --- | --- | --- |
| CN1C(=O)c2ccccc2C(=O)Nc2cc(Cl)c(Cl)cc21 [Compound 3f, 2,3-dichloro-5-methyl-5,12-dihydrodibenzo[b,f][1,4]diazocine-6,11-dione] |  |  | 19.1 |  | 7.8 | 47.5 |  | 7.6 | 29.9 | IC50 ([1]; EUFA30, 24 h of treatment): 320 ± 36 µM; IC50 ([2]; 24 h of treatment): 298 ± 11 µM; IC50 ([4]; U87, 24 h of treatment): 207 ± 23.6 µM; dead cell fraction: early apoptosis (EUFA30 cells; [6]): 6.9%; dead cell fraction: late apoptosis (EUFA30 cells; [7]): 1.6%; dead cell fraction: necrosis (EUFA30 cells; [8]): 4.3%; number of necrotic cells (HeLa cells): 15.3%; IC50 [5]: 93.7 to 323 µM |
| CN1C(=O)c2cc(Cl)c(Cl)cc2C(=O)Nc2ccccc21 [Compound 3g, 8,9-dichloro-5-methyl-5,12-dihydrodibenzo[b,f][1,4]diazocine-6,11-dione] |  | 41.6 | 29.5 | 43.1 | 5.3 |  |  | 12.3 | 2.4 | IC50 ([3]; BICR18, 24 h of treatment): 266 ± 27.6 µM; IC50 ([4]; U87, 24 h of treatment): 323 ± 23.9 µM; dead cell fraction: early apoptosis (EUFA30 cells; [6]): 5.0%; dead cell fraction: late apoptosis (EUFA30 cells; [7]): 1.5%; dead cell fraction: necrosis (EUFA30 cells; [8]): 6.8%; number of necrotic cells (HeLa cells): 8.8%; IC50 [5]: 93.7 to 323 µM |
| CN1C(=O)c2c(Cl)c(Cl)c(Cl)c(Cl)c2C(=O)Nc2ccccc21 [Compound 3h, 7,8,9,10-tetrachloro-5-methyl-5,12-dihydrodibenzo[b,f][1,4]diazocine-6,11-dione] |  |  |  |  |  |  |  |  |  | IC50 ([1]; EUFA30, 24 h of treatment): 144 ± 10.6 µM; IC50 ([1]; EUFA30, 48 h of treatment, N.A. = not active): 153 ± 4.1 µM; IC50 ([2]; 24 h of treatment): 132 ± 6 µM; IC50 ([2]; 48 h of treatment, N.A. = not active): 251 ± 5.1 µM; IC50 ([3]; BICR18, 24 h of treatment): 93.7 ± 5.2 µM; IC50 ([3]; BICR18, 48 h of treatment, N.A. = not active): 178 ± 3 µM; IC50 ([4]; U87, 24 h of treatment): 97.1 ± 13.2 µM; IC50 ([4]; U87, 48 h of treatment, N.A. = not active): 294 ± 22.4 µM; dead cell fraction: early apoptosis (EUFA30 cells; [6]): 9.0%; dead cell fraction: late apoptosis (EUFA30 cells; [7]): 1.8%; dead cell fraction: necrosis (EUFA30 cells; [8]): 15.6%; number of necrotic cells (HeLa cells): 15.3%; IC50 [5]: 93.7 to 323 µM |
| O=C1Nc2ccccc2N(Cc2ccccc2)C(=O)c2ccccc21 [Compound 3j, 5-benzyl-5,12-dihydrodibenzo[b,f][1,4]diazocine-6,11-dione] | 205 to 206 °C | 33.2 | 32.6 | 34.3 | 3.3 | 42.2 | 33 | 6.1 |  | IC50 [5]: > 300 µM |
| CN(C)CCN1C(=O)c2ccccc2C(=O)N(Cc2ccccc2)c2ccccc21 [Compound 3m, 5-benzyl-12-(2-(dimethylamino)ethyl)-5,12-dihydrodibenzo[b,f][1,4]diazocine-6,11-dione] | 154 to 155 °C | 42.2 | 9.9 | 23.4 |  | 30.1 | 36.8 | 4.7 | 4.1 |  |
| Nc1ccccc1N1C(=O)c2ccccc2C1=O [Compound 10, 2-(2-aminophenyl)isoindoline-1,3-dione] | 195 to 196 °C | 25.6 |  | 4.9 |  | 11.4 | 22.9 |  |  |  |
| CC[C@@]1(O)C(=O)OCc2c1cc1n(c2=O)Cc2cc3ccccc3nc2-1 [camptothecin, reference compound] |  |  |  |  |  |  |  |  |  | dead cell fraction: early apoptosis (EUFA30 cells; [9]): 4.1%; dead cell fraction: late apoptosis (EUFA30 cells; [9]): 6.8%; dead cell fraction: necrosis (EUFA30 cells; [9]): 18.7%; necrotic cells (HeLa cells; positive control, 10 μM): 31.2% |

From article PMC7356613, “Unsymmetrically-Substituted 5,12-dihydrodibenzo[b,f][1,4]diazocine-6,11-dione Scaffold—A Useful Tool for Bioactive Molecules Design” (Molecules, 2020)
